What all share (type): functional
Test [1] concerns Nilaparvata lugens. In words: In vivo insecticidal activity against fifth-instar larval stage of Nilaparvata lugens (brown planthopper) in second semester rice seedlings assessed as insect mortality at 500 mg/L treated for 5 secs before larval infestation measured after 72 hr.
In test [2] the test system is Nilaparvata lugens. In words: In vivo insecticidal activity against fifth-instar larval stage of Nilaparvata lugens (brown planthopper) in second semester rice seedlings assessed as insect mortality at 100 mg/L treated for 5 secs before larval infestation measured after 72 hr.
Test [3] has as its system Nilaparvata lugens. In words: In vivo insecticidal activity against fifth-instar larval stage of Nilaparvata lugens (brown planthopper) in second semester rice seedlings assessed as insect mortality at 10 mg/L treated for 5 secs before larval infestation measured after 72 hr.

This note sets out measurements from ChEMBL document CHEMBL3045685, “Discovery of bis-aromatic ring neonicotinoid analogues fixed as cis-configuration: Synthesis, insecticidal activities, and molecular docking studies” (2010).

As for `CCOC(=O)CN1CC([N+](=O)[O-])=C(N(CC)Cc2ccc(Cl)nc2)N(C)C1`, the mortality at 500 µg/mL in the test on Nilaparvata lugens [1] stood at 100%. For the same molecule, in the test with Nilaparvata lugens [2], the mortality at 100 µg/mL was determined as 100%. Moreover, in the test on Nilaparvata lugens [3], the mortality at 10 µg/mL was at least 90%.

In the case of `CCN(Cc1ccc(Cl)nc1)C1=C([N+](=O)[O-])CN(Cc2ccc(Cl)nc2)CN1C`, in the test on Nilaparvata lugens [1], the mortality at 500 µg/mL was determined as 100%. Further, the mortality at 100 µg/mL in the test with Nilaparvata lugens [2] came to 100%. Also, in the test with Nilaparvata lugens [3], the mortality at 10 µg/mL was at least 80%.

`CCN(Cc1ccc(Cl)nc1)C1=C([N+](=O)[O-])CN(CCc2ccccc2)CN1C`: the mortality at 500 µg/mL with Nilaparvata lugens [1] worked out at 100%. Besides, in the test on Nilaparvata lugens [2], the mortality at 100 µg/mL worked out at 100%. In the test on Nilaparvata lugens [3], the mortality at 10 µg/mL is at least 80%.

Turning to `CCN(Cc1ccc(Cl)nc1)C1=C([N+](=O)[O-])CN(C2CCCCC2)CN1C`, the mortality at 500 µg/mL in the test on Nilaparvata lugens [1] was at least 90%. Further, in the test on Nilaparvata lugens [2], the mortality at 100 µg/mL is at least 80%. The mortality at 10 µg/mL with Nilaparvata lugens [3] is at least 60%.

Turning to `CCN(Cc1ccc(Cl)nc1)C1=C([N+](=O)[O-])CN(c2ccccc2)CN1C`, in the test on Nilaparvata lugens [1], the mortality at 500 µg/mL amounted to 100%. For the same molecule, the mortality at 100 µg/mL in the test with Nilaparvata lugens [2] is at least 90%. Moreover, the mortality at 10 µg/mL with Nilaparvata lugens [3] is at least 70%.

For `CCN(Cc1ccc(Cl)nc1)C1=C([N+](=O)[O-])CN(c2ccc(F)cc2)CN1C`, the mortality at 500 µg/mL with Nilaparvata lugens [1] is 100%. Besides, the mortality at 100 µg/mL in the test with Nilaparvata lugens [2] was 100%. The mortality at 10 µg/mL in the test on Nilaparvata lugens [3] was at least 80%.

For `CCN(Cc1ccc(Cl)nc1)C1=C([N+](=O)[O-])CN(c2ccccc2OC)CN1C`, the mortality at 500 µg/mL in the test with Nilaparvata lugens [1] was 100%. Also, the mortality at 100 µg/mL in the test on Nilaparvata lugens [2] came to 100%. In addition, in the test with Nilaparvata lugens [3], the mortality at 10 µg/mL is at least 60%.

For `CCN(Cc1ccc(Cl)nc1)C1=C([N+](=O)[O-])CN(Cc2ccccc2)CN1C`, the mortality at 500 µg/mL in the test with Nilaparvata lugens [1] stood at 100%. Besides, the mortality at 100 µg/mL with Nilaparvata lugens [2] turned out to be 100%. Further, in the test on Nilaparvata lugens [3], the mortality at 10 µg/mL is at least 90%.

Consider `CCN(Cc1ccc(Cl)nc1)C1=C([N+](=O)[O-])CN(Cc2ccc(C)cc2)CN1C`, for which the mortality at 500 µg/mL with Nilaparvata lugens [1] stood at 100%. The mortality at 100 µg/mL in the test on Nilaparvata lugens [2] was at least 70%. For the same molecule, the mortality at 10 µg/mL in the test with Nilaparvata lugens [3] is at least 50%.

Consider `CCN(Cc1ccc(Cl)nc1)C1=C([N+](=O)[O-])CN(Cc2ccc(OC)cc2)CN1C`, for which the mortality at 500 µg/mL in the test with Nilaparvata lugens [1] is at least 90%. In addition, the mortality at 100 µg/mL with Nilaparvata lugens [2] was at least 50%.

In the case of `CCN(Cc1ccc(Cl)nc1)C1=C([N+](=O)[O-])CN(Cc2ccccn2)CN1C`, the mortality at 500 µg/mL with Nilaparvata lugens [1] stood at 100%. The mortality at 100 µg/mL in the test with Nilaparvata lugens [2] is at least 80%. The mortality at 10 µg/mL in the test on Nilaparvata lugens [3] was at least 70%.

With `CCOC(=O)C(CC(C)C)N1CC([N+](=O)[O-])=C(N(CC)Cc2ccc(Cl)nc2)N(C)C1` (racemic), in the test on Nilaparvata lugens [1], the mortality at 500 µg/mL is at least 70%. For the same molecule, the mortality at 100 µg/mL in the test with Nilaparvata lugens [2] was at least 50%. Also, the mortality at 10 µg/mL with Nilaparvata lugens [3] is below 50%.

In the case of `CCOC(=O)C(Cc1ccccc1)N1CC([N+](=O)[O-])=C(N(CC)Cc2ccc(Cl)nc2)N(C)C1` (racemic), the mortality at 500 µg/mL in the test on Nilaparvata lugens [1] was at least 80%. Also, in the test with Nilaparvata lugens [2], the mortality at 100 µg/mL is at least 70%. Besides, the mortality at 10 µg/mL with Nilaparvata lugens [3] is at least 60%.

Regarding `CCN(Cc1ccc(Cl)nc1)C1=C([N+](=O)[O-])CN(C(C)c2ccc(C)cc2)CN1C` (racemic), the mortality at 500 µg/mL with Nilaparvata lugens [1] was at least 90%. Moreover, the mortality at 100 µg/mL with Nilaparvata lugens [2] is at least 80%. The mortality at 10 µg/mL in the test on Nilaparvata lugens [3] was at least 70%.

In the case of `CCN(Cc1ccc(Cl)nc1)C1=C([N+](=O)[O-])CN(C(C)c2ccccc2)CN1C` (single isomer, unassigned; (+)), the mortality at 500 µg/mL with Nilaparvata lugens [1] is 100%. The mortality at 100 µg/mL with Nilaparvata lugens [2] was 100%. Further, the mortality at 10 µg/mL in the test with Nilaparvata lugens [3] was at least 80%.

Regarding `CCN(Cc1ccc(Cl)nc1)/C(=C/[N+](=O)[O-])NC` [NITENPYRAM], in the test with Nilaparvata lugens [1], the mortality at 500 µg/mL came to 100%. The mortality at 100 µg/mL in the test on Nilaparvata lugens [2] came to 100%. In addition, the mortality at 10 µg/mL with Nilaparvata lugens [3] worked out at 100%.
